Reference: patent US20240391931A1 (Bristol-Myers Squibb Company, priority 2021, published 2024)
pEC50, pIC50: −log10 of the molar value.

What was measured:
EGFR = EGFR (Homo sapiens, UniProt P00533); assay: EGFR signaling (pEGFR Tyr1068/total EGFR MSD) in A431 cells; format: cell-based; set-up: endogenous in cells; host or cells: A431, N87; details: for pEC50: A431 cells, read-out: A431 pEGFR EC50; for Selectivity A431 EC50/BT474 EC50: ratio A431 pEGFR EC50 to BT474 pHER2 EC50; for Selectivity A431 EC50/HEKYVMA EC50: ratio A431 pEGFR EC50 to HEK YVMA pHER2 EC50
EGFR, sequence (P00533 25-1210): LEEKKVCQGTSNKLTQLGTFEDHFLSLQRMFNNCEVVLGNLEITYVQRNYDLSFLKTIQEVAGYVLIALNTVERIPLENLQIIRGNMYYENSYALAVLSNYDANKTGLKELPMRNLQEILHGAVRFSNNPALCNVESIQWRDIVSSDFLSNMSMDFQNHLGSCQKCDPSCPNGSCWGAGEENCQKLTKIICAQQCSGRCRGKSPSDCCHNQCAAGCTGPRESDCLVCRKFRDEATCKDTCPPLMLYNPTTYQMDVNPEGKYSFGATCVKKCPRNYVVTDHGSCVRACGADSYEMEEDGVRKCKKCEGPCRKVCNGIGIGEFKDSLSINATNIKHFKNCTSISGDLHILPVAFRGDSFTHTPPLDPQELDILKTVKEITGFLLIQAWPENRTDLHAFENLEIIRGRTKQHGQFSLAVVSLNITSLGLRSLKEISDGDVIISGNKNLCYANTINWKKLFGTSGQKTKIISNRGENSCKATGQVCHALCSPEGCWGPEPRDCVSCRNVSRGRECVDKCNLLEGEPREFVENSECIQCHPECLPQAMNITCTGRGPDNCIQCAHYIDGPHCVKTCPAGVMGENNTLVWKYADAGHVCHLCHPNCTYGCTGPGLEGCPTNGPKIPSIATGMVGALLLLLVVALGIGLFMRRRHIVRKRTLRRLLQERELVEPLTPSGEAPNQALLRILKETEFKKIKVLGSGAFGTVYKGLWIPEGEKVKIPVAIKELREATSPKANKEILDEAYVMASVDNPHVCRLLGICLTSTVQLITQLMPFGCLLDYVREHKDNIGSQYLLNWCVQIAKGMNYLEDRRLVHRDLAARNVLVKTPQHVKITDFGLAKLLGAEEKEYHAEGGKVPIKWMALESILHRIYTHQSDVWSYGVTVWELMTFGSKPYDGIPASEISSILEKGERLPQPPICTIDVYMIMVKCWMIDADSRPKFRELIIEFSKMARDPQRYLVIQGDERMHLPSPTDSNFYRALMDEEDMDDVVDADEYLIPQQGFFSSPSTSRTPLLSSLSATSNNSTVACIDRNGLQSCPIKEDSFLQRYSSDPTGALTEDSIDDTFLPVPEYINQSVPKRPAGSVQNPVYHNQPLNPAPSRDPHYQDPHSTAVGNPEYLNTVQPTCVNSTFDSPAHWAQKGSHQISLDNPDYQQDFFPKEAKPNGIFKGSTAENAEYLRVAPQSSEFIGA
In short: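 EC50 was fitted with variable Hill slope from MSD pTyr1068/total EGFR ratios, expressed as % DMSO control. A431 cells were starved overnight, then exposed 1.5 h to eight concentrations from 10 to 0.005 μM in 1% FBS before a 10-min 100 ng/mL EGF pulse.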

HER2YVMA = HER2YVMA (Homo sapiens, UniProt P04626, INS775YVMA); assay: Enzymatic assay HER2YVMA (method b); format: biochemical; set-up: purchased Viva biotech, Shanghai, China custom purification; details: [HER2YVMA]=5 nM, [ATP]=25 μM, [Peptide 22]=1 μM
HER2YVMA, sequence (P04626 with tags, fused parts or gaps INS775YVMA): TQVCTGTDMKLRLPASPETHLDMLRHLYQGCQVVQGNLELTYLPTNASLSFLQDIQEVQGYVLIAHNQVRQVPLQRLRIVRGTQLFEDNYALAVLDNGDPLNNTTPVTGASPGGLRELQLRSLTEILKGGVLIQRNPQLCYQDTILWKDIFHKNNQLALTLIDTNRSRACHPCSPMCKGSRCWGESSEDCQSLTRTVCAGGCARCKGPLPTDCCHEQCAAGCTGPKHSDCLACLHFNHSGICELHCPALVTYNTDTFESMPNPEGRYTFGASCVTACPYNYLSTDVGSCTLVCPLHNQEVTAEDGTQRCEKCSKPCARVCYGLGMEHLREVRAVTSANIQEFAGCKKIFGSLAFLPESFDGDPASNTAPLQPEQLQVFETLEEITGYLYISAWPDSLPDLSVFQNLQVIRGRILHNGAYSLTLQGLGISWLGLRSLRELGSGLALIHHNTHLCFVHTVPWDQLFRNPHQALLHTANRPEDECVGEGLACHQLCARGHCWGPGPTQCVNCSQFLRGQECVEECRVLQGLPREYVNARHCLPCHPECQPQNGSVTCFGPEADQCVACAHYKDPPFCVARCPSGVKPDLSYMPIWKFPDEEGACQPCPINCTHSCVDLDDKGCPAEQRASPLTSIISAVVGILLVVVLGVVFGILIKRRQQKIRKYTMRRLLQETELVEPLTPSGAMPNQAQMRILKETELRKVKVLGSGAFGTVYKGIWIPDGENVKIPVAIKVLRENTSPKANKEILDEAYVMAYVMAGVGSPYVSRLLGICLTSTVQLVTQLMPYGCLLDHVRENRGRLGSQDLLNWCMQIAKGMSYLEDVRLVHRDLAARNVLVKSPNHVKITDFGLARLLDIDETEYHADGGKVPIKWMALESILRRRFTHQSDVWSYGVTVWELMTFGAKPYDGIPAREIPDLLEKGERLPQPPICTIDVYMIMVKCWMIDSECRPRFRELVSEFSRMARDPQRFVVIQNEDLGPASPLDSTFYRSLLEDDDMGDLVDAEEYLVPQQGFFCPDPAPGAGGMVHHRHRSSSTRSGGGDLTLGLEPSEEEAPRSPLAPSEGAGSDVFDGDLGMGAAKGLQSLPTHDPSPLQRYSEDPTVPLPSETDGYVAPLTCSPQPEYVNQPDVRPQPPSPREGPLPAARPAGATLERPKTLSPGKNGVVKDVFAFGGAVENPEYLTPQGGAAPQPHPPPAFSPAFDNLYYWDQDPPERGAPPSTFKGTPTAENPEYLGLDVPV
In short: (§1)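 Initial rates over 0–3600 s, read as substrate-to-product conversion by capillary electrophoresis, were converted to percent inhibition and fitted with a variable-slope curve to give IC50. Conditions: EGFR WT 2 nM with 1 mM ATP; HER2 YVMA 5 nM or HER2 WT 12.5 nM, each with 25 μM ATP. All used 1 μM Peptide 22 in pH 7.5 HEPES/Mn/Mg buffer.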

EGFR WT = target: T1, EGFR WT (Homo sapiens, UniProt P00533); assay: Enzymatic assay EGFR WT (method c); format: biochemical; details: [EGFR WT]=2 nM, [ATP]=1 mM, [Peptide 22]=1 μM
T1 construct: purchased Thermo Fisher, Carlsbad, CA ERBB1 PR7295B
T1 sequence (P00533 25-1210): as the sequence (P00533 25-1210) above
In short: as §1

With CC[C@H](NC/C=C/C(=O)N1CCc2c(sc3ncnc(Nc4ccc(Oc5ccc(C)nc5)c(C)c4)c23)C1)C(F)(F)F [Compound 122] the pEC50 (EGFR) was 6.00 to 7.00, the “Selectivity A431 EC50/BT474 EC50” value (EGFR) was “B (B: ≥ 20 and < 100)” and the “Selectivity A431 EC50/HEKYVMA EC50” value (EGFR) was “B (B: ≥ 20 and < 100)”. For the same molecule, the pIC50 (HER2YVMA) was > 7.00 and the pIC50 (EGFR WT) was < 5.00.
For Cc1ccc(Oc2ccc(Nc3ncnc4sc5c(c34)CCN(C(=O)/C=C/CN3CC4(CCCC4)C3)C5)cc2C)cn1 [Compound 123], the pEC50 (EGFR) was 6.00 to 7.00, the “Selectivity A431 EC50/BT474 EC50” value (EGFR) was “C (C: ≥ 10 and < 20)” and the “Selectivity A431 EC50/HEKYVMA EC50” value (EGFR) was “D (D: ≥ 5 and < 10)”. The pIC50 (HER2YVMA) was > 7.00 and the pIC50 (EGFR WT) was < 5.00.
Cc1ccc(Oc2ccc(Nc3ncnc4sc5c(c34)CCN(C(=O)/C=C/CN3CC[C@H](F)C3)C5)cc2C)cn1 [Compound 124] was tested, and the pEC50 (EGFR) was > 7.00, the “Selectivity A431 EC50/BT474 EC50” value (EGFR) was “B (B: ≥ 20 and < 100)” and the “Selectivity A431 EC50/HEKYVMA EC50” value (EGFR) was “C (C: ≥ 10 and < 20)”. For the same molecule, the pIC50 (HER2YVMA) was > 7.00 and the pIC50 (EGFR WT) was < 5.00.
Cc1cc(Nc2ncnc3sc4c(c23)CCN(C(=O)/C=C/CN(C)C)C4)ccc1Oc1ccn2ccnc2c1 [Compound 126, (E)-4-(dimethylamino)-1-(4-((4-(imidazo[1,2-a]pyridin-7-yloxy)-3-methylphenyl)amino)-5,8-dihydropyrido[4′,3′:4,5]thieno[2,3-d]pyrimidin-7(6H)-yl)but-2-en-1-one] was tested, and the pEC50 (EGFR) was 6.00 to 7.00, the “Selectivity A431 EC50/BT474 EC50” value (EGFR) was “B (B: ≥ 20 and < 100)” and the “Selectivity A431 EC50/HEKYVMA EC50” value (EGFR) was “B (B: ≥ 20 and < 100)”. The pIC50 (HER2YVMA) was > 7.00 and the pIC50 (EGFR WT) was < 5.00.
For Cc1nc2cc(Oc3ccc(Nc4ncnc5sc6c(c45)CCN(C(=O)/C=C/CN(C)C)C6)cc3C)ccn2n1 [Compound 127, (E)-4-(dimethylamino)-1-(4-((3-methyl-4-((2-methyl-[1,2,4]triazolo[1,5-a]pyridin-7-yl)oxy)phenyl)amino)-5,6-dihydropyrido[4′,3′:4,5]thieno[2,3-d]pyrimidin-7(8H)-yl)but-2-en-1-one], the pEC50 (EGFR) was 5.00 to 6.00, the “Selectivity A431 EC50/BT474 EC50” value (EGFR) was “A (A: ≥100)” and the “Selectivity A431 EC50/HEKYVMA EC50” value (EGFR) was “B (B: ≥ 20 and < 100)”. The pIC50 (HER2YVMA) was > 7.00 and the pIC50 (EGFR WT) was < 5.00.
For COc1ccc(Oc2ccc(Nc3ncnc4sc5c(c34)CN(C(=O)/C=C/CN(C)C)C5)cc2C)cn1 [Compound 128, (E)-4-(dimethylamino)-1-(4-((4-((6-methoxypyridin-3-yl)oxy)-3-methylphenyl)amino)-5,7-dihydro-6H-pyrrolo[3′,4′:4,5]thieno[2,3-d]pyrimidin-6-yl)but-2-en-1-one], the pEC50 (EGFR) was 5.00 to 6.00, the “Selectivity A431 EC50/BT474 EC50” value (EGFR) was “B (B: ≥ 20 and < 100)” and the “Selectivity A431 EC50/HEKYVMA EC50” value (EGFR) was “B (B: ≥ 20 and < 100)”. For the same molecule, the pIC50 (HER2YVMA) was > 7.00 and the pIC50 (EGFR WT) was < 5.00.
With Cc1ccc(Oc2ccc(Nc3ncnc4sc5c(c34)CN(C(=O)/C=C/CN(C)C)C5)cc2Cl)cn1 [Compound 129, (E)-1-(4-((3-Chloro-4-((6-methylpyridin-3-yl)oxy)phenyl)amino)-5H-pyrrolo[3′,4′:4,5]thieno[2,3-d]pyrimidin-6(7H)-yl)-4-(dimethylamino)but-2-en-1-one] the pEC50 (EGFR) was 6.00 to 7.00, the “Selectivity A431 EC50/BT474 EC50” value (EGFR) was “B (B: ≥ 20 and < 100)” and the “Selectivity A431 EC50/HEKYVMA EC50” value (EGFR) was “B (B: ≥ 20 and < 100)”. For the same molecule, the pIC50 (HER2YVMA) was > 7.00 and the pIC50 (EGFR WT) was < 5.00.
Cc1cc(Nc2ncnc3sc4c(c23)CN(C(=O)/C=C/CN(C)C)C4)ccc1Oc1ccn2ncnc2c1 [Compound 130, (E)-1-(4-((4-([1,2,4]Triazolo[1,5-a]pyridin-7-yloxy)-3-methylphenyl)amino)-5H-pyrrolo[3′,4′:4,5]thieno[2,3-d]pyrimidin-6(7H)-yl)-4-(dimethylamino)but-2-en-1-one] was tested, and the pEC50 (EGFR) was 5.00 to 6.00, the “Selectivity A431 EC50/BT474 EC50” value (EGFR) was “A (A: ≥100)” and the “Selectivity A431 EC50/HEKYVMA EC50” value (EGFR) was “A (A: ≥100)”. The pIC50 (HER2YVMA) was > 7.00 and the pIC50 (EGFR WT) was < 5.00.
In the case of CCN(CC)C/C=C/C(=O)N1CCc2c(sc3ncnc(Nc4ccc(Oc5ccc(C)nc5)c(C)c4)c23)C1 [Compound 131], the pEC50 (EGFR) was > 7.00, the “Selectivity A431 EC50/BT474 EC50” value (EGFR) was “C (C: ≥ 10 and < 20)” and the “Selectivity A431 EC50/HEKYVMA EC50” value (EGFR) was “D (D: ≥ 5 and < 10)”. For the same molecule, the pIC50 (HER2YVMA) was > 7.00 and the pIC50 (EGFR WT) was 5.00 to 6.00.
In the case of Cc1ccc(Oc2ccc(Nc3ncnc4sc5c(c34)CCN(C(=O)/C=C/CN3CC[C@@H](CO)C3)C5)cc2C)cn1 [Compound 132], the pEC50 (EGFR) was 6.00 to 7.00, the “Selectivity A431 EC50/BT474 EC50” value (EGFR) was “B (B: ≥ 20 and < 100)” and the “Selectivity A431 EC50/HEKYVMA EC50” value (EGFR) was “C (C: ≥ 10 and < 20)”. The pIC50 (HER2YVMA) was > 7.00 and the pIC50 (EGFR WT) was 5.00 to 6.00.
With Cc1ccc(Oc2ccc(Nc3ncnc4sc5c(c34)CCN(C(=O)/C=C/CN3CC[C@H](CO)C3)C5)cc2C)cn1 [Compound 133] the pEC50 (EGFR) was 6.00 to 7.00, the “Selectivity A431 EC50/BT474 EC50” value (EGFR) was “B (B: ≥ 20 and < 100)” and the “Selectivity A431 EC50/HEKYVMA EC50” value (EGFR) was “C (C: ≥ 10 and < 20)”. For the same molecule, the pIC50 (HER2YVMA) was > 7.00 and the pIC50 (EGFR WT) was < 5.00.
For Cc1ccc(Oc2ccc(Nc3ncnc4sc5c(c34)CCN(C(=O)/C=C/CN3CC(CO)(CO)C3)C5)cc2C)cn1 [Compound 134], the pEC50 (EGFR) was 5.00 to 6.00, the “Selectivity A431 EC50/BT474 EC50” value (EGFR) was “B (B: ≥ 20 and < 100)” and the “Selectivity A431 EC50/HEKYVMA EC50” value (EGFR) was “B (B: ≥ 20 and < 100)”. For the same molecule, the pIC50 (HER2YVMA) was > 7.00 and the pIC50 (EGFR WT) was 5.00 to 6.00.
